This series is described as follows: Boiling temperature at pressure P. The settings on record: Liquid, Closed cell (Static) method.

Each structure is given as a SMILES string. Numbers after ± are expanded uncertainties.

Take `CCCCC(=O)OCC` [ethyl pentanoate]: the “Boiling temperature at pressure P” value by setting is: (7.1 kPa) 72.2 ± 10 °C; (8.9 kPa) 77.6 ± 9 °C; (13.9 kPa) 88.0 ± 6.9 °C; (24.1 kPa) 101.8 ± 4.9 °C; (39.1 kPa) 115.2 ± 3.7 °C; (52.7 kPa) 122.6 ± 3 °C. Moreover, the “Boiling temperature at pressure P” value is 130.8 ± 2.9 °C (69.3 kPa) and 141.8 ± 2.9 °C (91.7 kPa).
Take `CCO` [ethanol]: the “Boiling temperature at pressure P” value runs as follows: (9.6 kPa) 30.2 ± 7.1 °C; (13.7 kPa) 36.8 ± 5.2 °C; (23.8 kPa) 47 ± 3.9 °C; (38.9 kPa) 57.0 ± 3.1 °C; (54.5 kPa) 64.4 ± 2.7 °C; (69.5 kPa) 69.7 ± 2.4 °C. Moreover, the “Boiling temperature at pressure P” value (91.7 kPa) came to 76.6 ± 2.4 °C.
Regarding `O` [water], the “Boiling temperature at pressure P” value (6.9 kPa) was found to be 38.8 ± 8.5 °C; the “Boiling temperature at pressure P” value (9 kPa) is 44 ± 7.7 °C; the “Boiling temperature at pressure P” value (14.1 kPa) is 53 ± 6 °C; the “Boiling temperature at pressure P” value (24.1 kPa) was 64.2 ± 4.3 °C; the “Boiling temperature at pressure P” value (39.5 kPa) worked out at 75.7 ± 3.4 °C; the “Boiling temperature at pressure P” value (54.3 kPa) was found to be 83.8 ± 2.8 °C. For the same molecule, the “Boiling temperature at pressure P” value was determined as 90.0 ± 2.6 °C (69.5 kPa) and 98.0 ± 2.5 °C (92.1 kPa).

Source of the values: the NIST ThermoML archive (doi:10.1016/j.fluid.2018.07.014).
